In US8158636B2, “Compounds and methods for kinase modulation, and indications therefor” (Plexxikon Inc., priority 2008, dated 2012):
pIC50: −log10 of the molar value.

Experiments:
Format in all cases: biochemical
B-Raf V600E = B-Raf V600E (Homo sapiens, UniProt P15056, V600E); experiment: Kinase activity assay, B-Raf V600E; conditions: Table 1c; read-out: activity toward kinase B-Raf V600E, IC50
Source text: (§1) Assays for the activity of kinases, including, but not limited to, Fms, Kit, B-Raf, B-Raf V600E, c-Raf-1, and TrkA are known in the art, for example as described in US Patent Publication Number US20070032519 and U.S. patent application Ser. No. 11/473,347 (see also, PCT publication WO2007002433), the disclosures of which are hereby incorporated by reference with respect to such assays.

Fms = Fms (Homo sapiens, UniProt P07333); experiment: Kinase activity assay, Fms; conditions: Table 1h; read-out: activity toward kinase Fms, IC50
Source text: as §1

Kdr = Kdr (Homo sapiens, UniProt P35968); experiment: Kinase activity assay, Kdr; conditions: Table 1i; read-out: activity toward kinase Kdr, IC50
Source text: as §1

Kit = Kit (Homo sapiens, UniProt P10721); experiment: Kinase activity assay, Kit; conditions: Table 1j; read-out: activity toward kinase Kit, IC50
Source text: as §1

Sequence of Fms (P07333 20-972): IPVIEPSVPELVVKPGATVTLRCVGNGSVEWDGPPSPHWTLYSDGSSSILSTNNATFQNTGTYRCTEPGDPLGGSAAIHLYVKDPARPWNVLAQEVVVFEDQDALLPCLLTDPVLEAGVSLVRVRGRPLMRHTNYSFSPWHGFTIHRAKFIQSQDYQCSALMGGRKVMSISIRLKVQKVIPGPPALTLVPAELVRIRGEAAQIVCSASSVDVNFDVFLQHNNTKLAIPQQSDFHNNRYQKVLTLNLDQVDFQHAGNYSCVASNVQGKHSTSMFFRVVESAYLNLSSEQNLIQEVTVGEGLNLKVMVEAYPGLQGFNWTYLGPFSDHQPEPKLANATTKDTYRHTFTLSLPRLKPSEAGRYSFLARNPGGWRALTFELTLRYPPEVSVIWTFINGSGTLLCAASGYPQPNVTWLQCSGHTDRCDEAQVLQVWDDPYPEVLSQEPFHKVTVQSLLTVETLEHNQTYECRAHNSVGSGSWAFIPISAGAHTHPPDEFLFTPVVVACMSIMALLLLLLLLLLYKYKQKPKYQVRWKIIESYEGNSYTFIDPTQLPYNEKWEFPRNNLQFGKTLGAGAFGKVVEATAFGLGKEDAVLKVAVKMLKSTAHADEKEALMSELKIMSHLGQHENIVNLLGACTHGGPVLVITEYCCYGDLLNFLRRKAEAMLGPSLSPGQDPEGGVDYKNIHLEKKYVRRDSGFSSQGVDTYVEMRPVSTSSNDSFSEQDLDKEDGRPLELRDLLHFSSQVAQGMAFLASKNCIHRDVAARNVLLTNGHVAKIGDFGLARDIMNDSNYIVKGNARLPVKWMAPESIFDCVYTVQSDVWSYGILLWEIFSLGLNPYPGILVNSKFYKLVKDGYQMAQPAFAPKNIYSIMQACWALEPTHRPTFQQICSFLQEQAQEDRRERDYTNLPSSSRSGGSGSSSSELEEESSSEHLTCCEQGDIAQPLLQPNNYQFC
Sequence of B-Raf V600E (P15056 whole entry V600E): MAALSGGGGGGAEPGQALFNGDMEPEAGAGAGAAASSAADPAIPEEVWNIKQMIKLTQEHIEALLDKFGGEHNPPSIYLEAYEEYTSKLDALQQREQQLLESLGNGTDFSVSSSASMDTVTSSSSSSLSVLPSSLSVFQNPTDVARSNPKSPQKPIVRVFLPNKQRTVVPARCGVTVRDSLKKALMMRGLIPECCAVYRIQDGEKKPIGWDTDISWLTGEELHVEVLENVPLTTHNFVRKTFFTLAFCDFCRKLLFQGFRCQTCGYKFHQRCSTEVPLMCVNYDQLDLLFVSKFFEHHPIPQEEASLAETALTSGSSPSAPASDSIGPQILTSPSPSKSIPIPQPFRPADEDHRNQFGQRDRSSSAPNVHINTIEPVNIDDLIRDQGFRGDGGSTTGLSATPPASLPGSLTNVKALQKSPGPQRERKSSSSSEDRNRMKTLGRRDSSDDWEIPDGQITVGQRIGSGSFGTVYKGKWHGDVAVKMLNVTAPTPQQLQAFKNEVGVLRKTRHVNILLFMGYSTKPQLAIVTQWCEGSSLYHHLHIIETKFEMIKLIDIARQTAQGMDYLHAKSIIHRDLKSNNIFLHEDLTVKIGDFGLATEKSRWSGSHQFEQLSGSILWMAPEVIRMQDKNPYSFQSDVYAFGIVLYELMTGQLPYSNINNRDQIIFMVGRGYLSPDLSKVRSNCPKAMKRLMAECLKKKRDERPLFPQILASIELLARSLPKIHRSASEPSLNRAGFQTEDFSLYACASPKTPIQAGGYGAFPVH
Sequence of Kdr (P35968 20-1356): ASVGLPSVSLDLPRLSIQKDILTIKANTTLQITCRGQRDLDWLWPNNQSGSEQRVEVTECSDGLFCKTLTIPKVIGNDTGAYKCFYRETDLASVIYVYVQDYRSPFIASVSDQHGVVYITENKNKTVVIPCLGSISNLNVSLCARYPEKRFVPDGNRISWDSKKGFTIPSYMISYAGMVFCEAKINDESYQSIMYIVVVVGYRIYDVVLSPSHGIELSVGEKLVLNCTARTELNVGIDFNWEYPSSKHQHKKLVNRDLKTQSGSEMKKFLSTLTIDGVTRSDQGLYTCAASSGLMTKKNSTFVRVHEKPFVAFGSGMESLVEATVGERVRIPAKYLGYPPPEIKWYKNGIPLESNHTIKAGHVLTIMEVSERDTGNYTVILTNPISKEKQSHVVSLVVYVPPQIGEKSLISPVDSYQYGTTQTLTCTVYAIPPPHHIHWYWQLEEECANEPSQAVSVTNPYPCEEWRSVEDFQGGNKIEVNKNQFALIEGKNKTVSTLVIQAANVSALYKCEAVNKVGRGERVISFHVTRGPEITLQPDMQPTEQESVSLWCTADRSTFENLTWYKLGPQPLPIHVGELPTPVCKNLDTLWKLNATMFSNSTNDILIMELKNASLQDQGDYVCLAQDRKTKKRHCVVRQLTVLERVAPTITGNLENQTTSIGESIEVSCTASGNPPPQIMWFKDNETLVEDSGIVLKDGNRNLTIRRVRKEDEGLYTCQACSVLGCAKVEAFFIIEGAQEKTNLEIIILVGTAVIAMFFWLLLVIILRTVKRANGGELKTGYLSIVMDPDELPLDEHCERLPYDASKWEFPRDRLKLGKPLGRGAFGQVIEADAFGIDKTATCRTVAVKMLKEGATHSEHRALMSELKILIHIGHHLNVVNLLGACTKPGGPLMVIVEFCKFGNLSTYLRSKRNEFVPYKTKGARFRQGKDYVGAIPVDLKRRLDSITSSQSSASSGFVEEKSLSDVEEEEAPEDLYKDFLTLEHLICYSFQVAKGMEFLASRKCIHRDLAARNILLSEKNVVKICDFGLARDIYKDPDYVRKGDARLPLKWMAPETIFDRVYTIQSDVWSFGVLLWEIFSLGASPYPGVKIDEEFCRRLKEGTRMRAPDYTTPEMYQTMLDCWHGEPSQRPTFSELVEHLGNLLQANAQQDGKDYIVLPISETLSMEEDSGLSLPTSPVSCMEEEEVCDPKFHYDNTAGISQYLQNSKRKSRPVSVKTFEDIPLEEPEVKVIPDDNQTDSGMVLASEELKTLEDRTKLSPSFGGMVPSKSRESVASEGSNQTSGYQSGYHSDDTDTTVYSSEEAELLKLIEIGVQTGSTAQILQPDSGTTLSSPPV
Sequence of Kit (P10721 26-976): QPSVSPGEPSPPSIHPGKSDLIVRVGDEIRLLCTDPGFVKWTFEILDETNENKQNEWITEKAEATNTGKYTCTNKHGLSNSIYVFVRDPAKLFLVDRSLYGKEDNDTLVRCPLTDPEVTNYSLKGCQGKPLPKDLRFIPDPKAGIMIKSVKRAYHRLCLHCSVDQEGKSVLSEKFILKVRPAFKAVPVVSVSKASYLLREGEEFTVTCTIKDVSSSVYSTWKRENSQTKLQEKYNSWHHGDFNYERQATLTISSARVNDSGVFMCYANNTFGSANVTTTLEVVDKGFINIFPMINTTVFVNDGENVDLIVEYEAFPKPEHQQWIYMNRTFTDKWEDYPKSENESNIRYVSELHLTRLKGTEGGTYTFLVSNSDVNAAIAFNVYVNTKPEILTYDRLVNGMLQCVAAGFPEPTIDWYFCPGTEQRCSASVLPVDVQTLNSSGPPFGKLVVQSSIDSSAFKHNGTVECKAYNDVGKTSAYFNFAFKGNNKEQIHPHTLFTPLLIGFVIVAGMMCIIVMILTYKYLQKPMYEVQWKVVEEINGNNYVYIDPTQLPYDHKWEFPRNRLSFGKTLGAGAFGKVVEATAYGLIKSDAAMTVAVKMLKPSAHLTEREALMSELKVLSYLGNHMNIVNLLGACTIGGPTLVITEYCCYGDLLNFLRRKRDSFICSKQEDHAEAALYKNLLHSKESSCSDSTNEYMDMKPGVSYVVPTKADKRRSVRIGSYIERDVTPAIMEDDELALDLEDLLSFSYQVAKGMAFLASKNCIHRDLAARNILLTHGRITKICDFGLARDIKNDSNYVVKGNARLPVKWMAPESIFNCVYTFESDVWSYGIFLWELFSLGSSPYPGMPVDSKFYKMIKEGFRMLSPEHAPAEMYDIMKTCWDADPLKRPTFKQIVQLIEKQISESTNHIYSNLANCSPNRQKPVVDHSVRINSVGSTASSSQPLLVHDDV

Structure (SMILES)	pIC50 (B-Raf V600E)	pIC50 (Fms)	pIC50 (Kdr)	pIC50 (Kit)
Fc1cncc(CNc2ccc(Cc3c[nH]c4ncncc34)c(F)n2)c1 [P-0050, (5-Fluoro-pyridin-3-ylmethyl)-[6-fluoro-5-(7H-pyrrolo[2,3-d]pyrimidin-5-ylmethyl)-pyridin-2-yl]-amine]	≥ 5.00	≥ 5.00	–	–
COc1cc(CNc2ccc(Cc3c[nH]c4ncncc34)c(F)n2)cc(OC)c1OC [P-0037, [6-Fluoro-5-(7H-pyrrolo[2,3-d]pyrimidin-5-ylmethyl)-pyridin-2-yl]-(3,4,5-trimethoxy-benzyl)-amine]	≥ 5.00	≥ 5.00	≥ 5.00	–
COc1cc(CNc2ccc(Cc3c[nH]c4ncncc34)c(F)n2)c(F)cn1 [P-0021, (5-Fluoro-2-methoxy-pyridin-4-ylmethyl)-[6-fluoro-5-(7H-pyrrolo[2,3-d]pyrimidin-5-ylmethyl)-pyridin-2-yl]-amine]	≥ 5.00	≥ 5.00	≥ 5.00	–
CS(=O)(=O)c1cc(Cl)ccc1CNc1ccc(Cc2c[nH]c3ncncc23)c(F)n1 [P-0060, (4-Chloro-2-methanesulfonyl-benzyl)-[6-fluoro-5-(7H-pyrrolo[2,3-d]pyrimidin-5-ylmethyl)-pyridin-2-yl]-amine]	≥ 5.00	≥ 5.00	≥ 5.00	–
Fc1nc(NCc2ccnc(Cl)c2)ccc1Cc1c[nH]c2ncncc12 [P-0076, (2-Chloro-pyridin-4-ylmethyl)-[6-fluoro-5-(7H-pyrrolo[2,3-d]pyrimidin-5-ylmethyl)-pyridin-2-yl]-amine]	≥ 5.00	≥ 5.00	≥ 5.00	–
Fc1ncc(Cl)cc1CNc1ccc(Cc2c[nH]c3ncncc23)c(F)n1 [P-0077, (5-Chloro-2-fluoro-pyridin-3-ylmethyl)-[6-fluoro-5-(7H-pyrrolo[2,3-d]pyrimidin-5-ylmethyl)-pyridin-2-yl]-amine]	≥ 5.00	≥ 5.00	–	–
COc1cncc(CNc2ccc(Cc3c[nH]c4ncncc34)c(F)n2)c1 [P-0040, [6-Fluoro-5-(7H-pyrrolo[2,3-d]pyrimidin-5-ylmethyl)-pyridin-2-yl]-(5-methoxy-pyridin-3-ylmethyl)-amine]	≥ 5.00	≥ 5.00	–	–
CCCCc1ncc(CNc2ccc(Cc3c[nH]c4ncncc34)c(F)n2)cn1 [P-0081, (2-Butyl-pyrimidin-5-ylmethyl)-[6-fluoro-5-(7H-pyrrolo[2,3-d]pyrimidin-5-ylmethyl)-pyridin-2-yl]-amine]	≥ 5.00	≥ 5.00	≥ 5.00	–
Fc1cnc(Cl)cc1CNc1ccc(Cc2c[nH]c3ncncc23)c(F)n1 [P-0072, (2-Chloro-5-fluoro-pyridin-4-ylmethyl)-[6-fluoro-5-(7H-pyrrolo[2,3-d]pyrimidin-5-ylmethyl)-pyridin-2-yl]-amine]	≥ 5.00	≥ 5.00	≥ 5.00	–
N#Cc1cc(CNc2ccc(Cc3c[nH]c4ncncc34)c(F)n2)ccn1 [P-0073, 4-{[6-Fluoro-5-(7H-pyrrolo[2,3-d]pyrimidin-5-ylmethyl)-pyridin-2-ylamino]-methyl}-pyridine-2-carbonitrile]	≥ 5.00	≥ 5.00	≥ 5.00	–
CCOc1ncccc1CNc1ncc(Cc2c[nH]c3ncncc23)cn1 [P-0085, (2-Ethoxy-pyridin-3-ylmethyl)-[5-(7H-pyrrolo[2,3-d]pyrimidin-5-ylmethyl)-pyrimidin-2-yl]-amine]	–	≥ 5.00	≥ 5.00	≥ 5.00
CCc1ncc(CNc2ccc(Cc3c[nH]c4ncncc34)c(F)n2)cn1 [P-0078, (2-Ethyl-pyrimidin-5-ylmethyl)-[6-fluoro-5-(7H-pyrrolo[2,3-d]pyrimidin-5-ylmethyl)-pyridin-2-yl]-amine]	≥ 5.00	≥ 5.00	≥ 5.00	–
FC(F)(F)c1ccc(CNc2ncc(Cc3c[nH]c4ncncc34)cn2)cn1 [P-0030, [5-(7H-Pyrrolo[2,3-d]pyrimidin-5-ylmethyl)-pyrimidin-2-yl]-(6-trifluoromethyl-pyridin-3-ylmethyl)-amine]	–	≥ 5.00	≥ 5.00	≥ 5.00
